Data from patent publication US12485123B2, “1H-pyrazolo[4,3-d]pyrimidine compounds as toll-like receptor 7 (TLR7) agonists” (BRISTOL-MYERS SQUIBB COMPANY, priority 2020, dated 2025).

Legend:
[1] = tested on: CD69; assay: Induction of CD69 in human whole blood; assay type: cell-based; settings: 17 hrs incubation, CD69 surface staining, 100% set to 1 uM of resiquimod, average where assay repeated, read-out: hWB CD69 EC50
Protocol: Induction of Type I Interferon Genes (MX-1) and CD69 in Human Blood
The induction of Type I interferon (IFN) MX-1 genes and the B-cell activation marker CD69 are downstream events that occur upon activation of the TLR7 pathway. The following is a human whole blood assay that measures their induction in response to a TLR7 agonist.
Heparinized human whole blood was harvested from human subjects and treated with test TLR7 agonist compounds at 1 mM. The blood was diluted with RPMI 1640 media and Echo was used to predot 10 nL per well giving a final concentration of 1 uM (10 nL in 10 uL of blood). After mixing on a shaker for 30 sec, the plates were covered and placed in a 37° C. chamber for o/n=17 hrs. Fixing/lysis buffer was prepared (5×→1× in H2O, warm at 37° C.; Cat #BD 558049) and kept the perm buffer (on ice) for later use.
For surface markers staining (CD69): prepared surface Abs: 0.045 ul hCD14-FITC (ThermoFisher Cat #MHCD1401)+0.6 ul hCD19-ef450 (ThermoFisher Cat #48-0198-42)+1.5 ul hCD69-PE (cat #BD555531)+0.855 ul FACS buffer. Added 3 ul/well, spin 1000 rpm for 1 min and mixed on shaker for 30 sec, put on ice for 30 min. Stop stimulation after 30 minutes with 70 uL of prewarmed 1× fix/lysis buffer and use Feliex mate to resuspend (15 times, change tips for each plate) and incubate at 37 C for 10 minutes.
Centrifuge at 2000 rpm for 5 minutes aspirate with HCS plate washer, mix on shaker for 30 sec and then wash with 70 uL in dPBS and pelleted 2×s (2000 rpm for 5 min) and 50 ul wash in FACS buffer pelleted 1×s (2000 rpm for 5 min). Mix on shaker for 30 sec. For Intracellular markers staining (MX-1): Add 50 ul of BD Perm buffer III and mix on shaker for 30 sec. Incubate on ice for 30 minutes (in the dark). Wash with 50 uL of FACS buffer 2× (spin @2300 rpm×5 min after perm) followed by mixing on shaker for 30 sec. Resuspended in 20 ul of FACS buffer containing MX1 antibody ( )(4812)-Alexa 647: Novus Biologicals #NBP2-43704AF647) 20 ul FACS bf+0.8 ul hIgG+0.04 ul MX-1. Spin 1000 rpm for 1 min, mix on shaker for 30 se and the samples were incubated at RT in the dark for 45 minutes followed by washing 2×FACS buffer (spin @2300 rpm×5 min after perm). Resuspend 20 ul (35 uL total per well) of FACS buffer and cover with foil and place in 4° C. to read the following day. Plates were read on iQuePlus. The results were loaded into toolset and […] curves are generated in curve master. The y-axis 100% is set to 1 uM of resiquimod.

[2] = molecular target: T1, human TLR7 (Homo sapiens, UniProt Q9NYK1); assay: Human TLR7 agonist activity reporter assay (HEK-Blue TLR7 cells, SEAP reporter); assay type: cell-based; settings: human TLR7 (hTLR7) reporter assay, SEAP readout after 18 h, average where assay repeated, read-out: TLR7 Agonism EC50
T1 construct: host or cells: HEK-Blue TLR7 cells (engineered human embryonic kidney cells)
T1 sequence (Q9NYK1 27-1049): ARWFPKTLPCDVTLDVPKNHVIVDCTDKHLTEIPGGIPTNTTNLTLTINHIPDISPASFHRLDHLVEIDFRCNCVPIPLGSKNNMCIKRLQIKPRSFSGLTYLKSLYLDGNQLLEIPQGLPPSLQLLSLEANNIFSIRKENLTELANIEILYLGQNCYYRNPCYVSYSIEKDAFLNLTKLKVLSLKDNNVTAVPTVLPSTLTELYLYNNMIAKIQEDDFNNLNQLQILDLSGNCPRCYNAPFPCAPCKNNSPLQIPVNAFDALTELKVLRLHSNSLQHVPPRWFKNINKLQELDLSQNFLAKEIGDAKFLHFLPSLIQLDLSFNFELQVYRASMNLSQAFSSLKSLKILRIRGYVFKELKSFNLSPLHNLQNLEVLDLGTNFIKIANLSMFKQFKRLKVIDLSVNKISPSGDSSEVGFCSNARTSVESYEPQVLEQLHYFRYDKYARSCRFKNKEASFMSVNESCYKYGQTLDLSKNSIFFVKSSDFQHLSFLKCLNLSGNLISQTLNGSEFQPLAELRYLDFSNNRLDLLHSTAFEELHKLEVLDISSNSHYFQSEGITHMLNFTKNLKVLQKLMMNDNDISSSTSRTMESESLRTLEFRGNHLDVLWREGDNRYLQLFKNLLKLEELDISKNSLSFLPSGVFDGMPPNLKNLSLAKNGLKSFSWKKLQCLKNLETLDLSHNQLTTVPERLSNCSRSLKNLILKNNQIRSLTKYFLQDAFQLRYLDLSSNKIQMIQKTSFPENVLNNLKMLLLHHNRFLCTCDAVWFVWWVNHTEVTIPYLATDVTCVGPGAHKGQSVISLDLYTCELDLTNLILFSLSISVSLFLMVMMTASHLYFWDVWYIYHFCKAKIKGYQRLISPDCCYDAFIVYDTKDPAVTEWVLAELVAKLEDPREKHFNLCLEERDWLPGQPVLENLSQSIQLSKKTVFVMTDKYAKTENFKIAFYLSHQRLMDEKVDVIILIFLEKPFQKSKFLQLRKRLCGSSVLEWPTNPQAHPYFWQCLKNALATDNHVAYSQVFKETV
Protocol: Human TLR7 Agonist Activity Assay
This procedure describes a method for assaying human TLR7 (hTLR7) agonist activity of the compounds disclosed in this specification.
HEK-Blue™ TLR7 cells were added to each well of a 384-well tissue-culture plate (15,000 cells per well) and incubated 16-18 h at 37° C., 5% CO2. Compounds (100 nl) were dispensed into wells containing the HEK-Blue™ TLR cells and the treated cells were incubated at 37° C., 5% CO2. After 18 h treatment ten microliters of freshly-prepared Quanti-Blue™ reagent (Invivogen) was added to each well, incubated for 30 min (37° C., 5% CO2) and SEAP levels measured using an Envision plate reader (OD=620 nm).

| EC50 [1] [nM] | EC50 [2] [nM] | SMILES |
| --- | --- | --- |
| 132 | 186 | CCC[C@@H](CCO)Nc1nc(N)nc2cnn(Cc3ccc(C(=O)N4CCOCC4)c4cccnc34)c12 [Compound 113, (3S)-3-[(5-amino-1-{[5-(morpholine-4-carbonyl)quinolin-8-yl]methyl}-1H-pyrazolo[4,3-d]pyrimidin-7-yl)amino]hexan-1-ol] |
| 13.8 | 49.4 | CCC[C@@H](CCO)Nc1nc(N)nc2cnn(Cc3ccc(CN4CC(O)C4)c4cccnc34)c12 [Compound 105, 1-({8-[(5-amino-7-{[(3S)-1-hydroxyhexan-3-yl]amino}-1H-pyrazolo[4,3-d]pyrimidin-1-yl)methyl]quinolin-5-yl}methyl)azetidin-3-ol] |
| 41.7 | 275 | Cc1cc(CNc2nc(N)nc3cnn(Cc4ccc(C(=O)N5CC6(CN(C)C6)C5)c5cccnc45)c23)no1 [Compound 138, N7-[(5-methyl-1,2-oxazol-3-yl)methyl]-1-[(5-{6-methyl-2,6-diazaspiro[3.3]heptane-2-carbonyl}quinolin-8-yl)methyl]-1H-pyrazolo[4,3-d]pyrimidine-5,7-diamine] |
| 153 | 267 | CCC[C@@H](CCO)Nc1nc(N)nc2cnn(Cc3ccc(C(=O)NC4CCN(C)CC4)c4cccnc34)c12 [Compound 121, 8-[(5-amino-7-{[(3S)-1-hydroxyhexan-3-yl]amino}-1H-pyrazolo[4,3-d]pyrimidin-1-yl)methyl]-N-(1-methylpiperidin-4-yl)quinoline-5-carboxamide] |
| 102 | 54.6 | CCC[C@@H](CCO)Nc1nc(N)nc2cnn(Cc3ccc(C(=O)N4CC(CCOC)C4)c4cccnc34)c12 [Compound 128, (3S)-3-{[5-amino-1-({5-[3-(2-methoxyethyl)azetidine-1-carbonyl]quinolin-8-yl}methyl)-1H-pyrazolo[4,3-d]pyrimidin-7-yl]amino}hexan-1-ol] |
| 369 | 75.2 | CCC[C@@H](CCO)Nc1nc(N)nc2cnn(Cc3ccc(C(=O)NC4CCOCC4)c4cccnc34)c12 [Compound 114, 8-[(5-amino-7-{[(3S)-1-hydroxyhexan-3-yl]amino}-1H-pyrazolo[4,3-d]pyrimidin-1-yl)methyl]-N-(oxan-4-yl)quinoline-5-carboxamide] |
| 0.3 | 21.7 | CCC[C@@H](CCO)Nc1nc(N)nc2cnn(Cc3ccc(C4CCNCC4)c4cccnc34)c12 [Compound 141, (3S)-3-[(5-amino-1-{[5-(piperidin-4-yl)quinolin-8-yl]methyl}-1H-pyrazolo[4,3-d]pyrimidin-7-yl)amino]hexan-1-ol] |
| 5.1 | 4.9 | CCC[C@@H](CCO)Nc1nc(N)nc2cnn(Cc3ccc(C(=O)N4CCN(C)CC4)c4cccnc34)c12 [Compound 112, (3S)-3-[(5-amino-1-{[5-(4-methylpiperazine-1-carbonyl)quinolin-8-yl]methyl}-1H-pyrazolo[4,3-d]pyrimidin-7-yl)amino]hexan-1-ol] |
| 57.7 | 66 | CCC[C@@H](CCO)Nc1nc(N)nc2cnn(Cc3ccc(C(=O)N4CCN(CCO)CC4)c4cccnc34)c12 [Compound 111, (3S)-3-{[5-amino-1-({5-[4-(2-hydroxyethyl)piperazine-1-carbonyl]quinolin-8-yl}methyl)-1H-pyrazolo[4,3-d]pyrimidin-7-yl]amino}hexan-1-ol] |
| 321 | 156 | CCCCNc1nc(N)nc2cnn(Cc3ccc(CN4CCOCC4)c4cccnc34)c12 [Compound 107, N7-butyl-1-({5-[(morpholin-4-yl)methyl]quinolin-8-yl}methyl)-1H-pyrazolo[4,3-d]pyrimidine-5,7-diamine] |
| 266 | 447 | Nc1nc(NCC2CC3(CC3)C2)c2c(cnn2Cc2ccc(C(=O)N3CCNC(=O)C3)c3cccnc23)n1 [Compound 117, 4-[8-({5-amino-7-[({spiro[2.3]hexan-5-yl}methyl)amino]-1H-pyrazolo[4,3-d]pyrimidin-1-yl}methyl)quinoline-5-carbonyl]piperazin-2-one] |
